Data as given in US20260363243A1 (priority 2022, published 2026).

System: cucumber downy mildew
Experiment: Activity in vivo for inhibiting cucumber downy mildew (potting method, greenhouse)
Details: for efficacy compared with dimethomorph and cyazofamid / efficacy compared with oxathiapiprolin / bactericidal activity: in words
[1] = 0.078 mg/L, re-screening, Table 2
[2] = 0.312 mg/L, re-screening, Table 2
[3] = 1.25 mg/L, re-screening, Table 2

Excerpt: The test and investigation method refers to a SOP-SC-1098 cucumber downy mildew potting method in the fungicide section of Standard operation Specification for testing biological Activity of pesticides written by Kang Zhuo and Gu Baogen.

Structure (SMILES) | Control effect (1.25 mg/L, Table 1) | Control effect (5 mg/L, Table 1) | Control effect (20 mg/L, Table 1) | further results
CO/C=C/C(=O)N1CCC(c2nc(C3=NOC(c4c(F)cccc4F)C3)cs2)CC1 (stereo not shown) [Compound I-1] | A (90%≤A≤100%) | A (90%≤A≤100%) | A (90%≤A≤100%) | –
CO/C=C(\F)C(=O)N1CCC(c2nc(C3=NOC(c4c(F)cccc4F)C3)cs2)CC1 (stereo not shown) [Compound I-2] | B (75%≤B<90%) | B (75%≤B<90%) | A (90%≤A≤100%) | –
CO/C=C(\Cl)C(=O)N1CCC(c2nc(C3=NOC(c4c(F)cccc4F)C3)cs2)CC1 (stereo not shown) [Compound I-3] | A (90%≤A≤100%) | A (90%≤A≤100%) | A (90%≤A≤100%) | –
CO/C=C(\Br)C(=O)N1CCC(c2nc(C3=NOC(c4c(F)cccc4F)C3)cs2)CC1 (stereo not shown) [Compound I-4] | B (75%≤B<90%) | A (90%≤A≤100%) | A (90%≤A≤100%) | –
CO/C=C(\I)C(=O)N1CCC(c2nc(C3=NOC(c4c(F)cccc4F)C3)cs2)CC1 (stereo not shown) [Compound I-5] | C (60%≤C<75%) | B (75%≤B<90%) | B (75%≤B<90%) | –
CO/C=C(\C#N)C(=O)N1CCC(c2nc(C3=NOC(c4c(F)cccc4F)C3)cs2)CC1 (stereo not shown) [Compound I-6] | – | – | B (75%≤B<90%) | –
CO/C=C(\C)C(=O)N1CCC(c2nc(C3=NOC(c4c(F)cccc4F)C3)cs2)CC1 (stereo not shown) [Compound I-7] | – | B (75%≤B<90%) | A (90%≤A≤100%) | –
CC/C(=C\OC)C(=O)N1CCC(c2nc(C3=NOC(c4c(F)cccc4F)C3)cs2)CC1 (stereo not shown) [Compound I-8] | A (90%≤A≤100%) | A (90%≤A≤100%) | A (90%≤A≤100%) | –
CCC/C(=C\OC)C(=O)N1CCC(c2nc(C3=NOC(c4c(F)cccc4F)C3)cs2)CC1 (stereo not shown) [Compound I-9] | A (90%≤A≤100%) | A (90%≤A≤100%) | A (90%≤A≤100%) | –
CO/C=C(/C(=O)N1CCC(c2nc(C3=NOC(c4c(F)cccc4F)C3)cs2)CC1)C(C)C (stereo not shown) [Compound I-10] | A (90%≤A≤100%) | A (90%≤A≤100%) | A (90%≤A≤100%) | –
CO/C=C(/C(=O)N1CCC(c2nc(C3=NOC(c4c(F)cccc4F)C3)cs2)CC1)c1ccccc1C (stereo not shown) [Compound I-11] | – | – | C (60%≤C<75%) | –
CO/C=C(/C(=O)N1CCC(c2nc(C3=NOC(c4c(F)cccc4F)C3)cs2)CC1)c1ccccc1 (stereo not shown) [Compound I-12] | – | D (45%≤D<60%) | B (75%≤B<90%) | –
CO/C=C(/C(=O)N1CCC(c2nc(C3=NOC(c4c(F)cccc4F)C3)cs2)CC1)c1ccc(C)cc1 (stereo not shown) [Compound I-13] | – | B (75%≤B<90%) | A (90%≤A≤100%) | –
CO/C=C(/C(=O)N1CCC(c2nc(C3=NOC(c4c(F)cccc4F)C3)cs2)CC1)c1cc(C)ccc1C (stereo not shown) [Compound I-14] | A (90%≤A≤100%) | A (90%≤A≤100%) | A (90%≤A≤100%) | –
CO/C=C(/C(=O)N1CCC(c2nc(C3=NOC(c4c(F)cccc4F)C3)cs2)CC1)c1cc(Cl)ccc1Cl (stereo not shown) [Compound I-15] | – | C (60%≤C<75%) | C (60%≤C<75%) | –
C=CC(=O)N1CCC(c2nc(C3=NOC(c4c(F)cccc4F)C3)cs2)CC1 (stereo not shown) [Compound I-16] | D (45%≤D<60%) | C (60%≤C<75%) | B (75%≤B<90%) | –
CCO/C=C/C(=O)N1CCC(c2nc(C3=NOC(c4c(F)cccc4F)C3)cs2)CC1 (stereo not shown) [Compound I-17] | A (90%≤A≤100%) | A (90%≤A≤100%) | A (90%≤A≤100%) | –
CO/N=C(/C(=O)N1CCC(c2nc(C3=NOC(c4c(F)cccc4F)C3)cs2)CC1)c1ccccc1 (stereo not shown) [Compound I-18] | – | – | D (45%≤D<60%) | –
CO/N=C(/C(=O)N1CCC(c2nc(C3=NOC(c4c(F)cccc4F)C3)cs2)CC1)c1ccccc1C (stereo not shown) [Compound I-19] | A (90%≤A≤100%) | A (90%≤A≤100%) | A (90%≤A≤100%) | Control effect [1]: B (75%≤B<90%); Control effect [2]: A (90%≤A≤100%); Control effect [3]: A (90%≤A≤100%)
CO/N=C(/C(=O)N1CCC(c2nc(C3=NOC(c4c(F)cccc4F)C3)cs2)CC1)c1cccc(C)c1 (stereo not shown) [Compound I-20] | – | – | D (45%≤D<60%) | –
CO/N=C(/C(=O)N1CCC(c2nc(C3=NOC(c4c(F)cccc4F)C3)cs2)CC1)c1ccc(C)cc1C (stereo not shown) [Compound I-21] | – | – | D (45%≤D<60%) | –

Structure (SMILES) | Control effect (1.25 mg/L, Table 1) | Control effect (5 mg/L, Table 1) | Control effect (20 mg/L, Table 1) | further results
CO/N=C/C(=O)N1CCC(c2nc(C3=NOC(c4c(F)cccc4F)C3)cs2)CC1 (stereo not shown) [Compound I-22] | A (90%≤A≤100%) | A (90%≤A≤100%) | A (90%≤A≤100%) | Control effect [1]: B (75%≤B<90%); Control effect [2]: B (75%≤B<90%); Control effect [3]: A (90%≤A≤100%)
CO/N=C(\C)C(=O)N1CCC(c2nc(C3=NOC(c4c(F)cccc4F)C3)cs2)CC1 (stereo not shown) [Compound I-23] | D (45%≤D<60%) | B (75%≤B<90%) | B (75%≤B<90%) | –
CC/C(=N\OC)C(=O)N1CCC(c2nc(C3=NOC(c4c(F)cccc4F)C3)cs2)CC1 (stereo not shown) [Compound I-24] | C (60%≤C<75%) | B (75%≤B<90%) | A (90%≤A≤100%) | –
CO/N=C(/C(=O)N1CCC(c2nc(C3=NOC(c4c(F)cccc4F)C3)cs2)CC1)c1cc(C)ccc1C (stereo not shown) [Compound I-25] | C (60%≤C<75%) | B (75%≤B<90%) | A (90%≤A≤100%) | –
CCO/N=C(/C(=O)N1CCC(c2nc(C3=NOC(c4c(F)cccc4F)C3)cs2)CC1)c1cc(C)ccc1C (stereo not shown) [Compound I-26] | D (45%≤D<60%) | D (45%≤D<60%) | C (60%≤C<75%) | –
CCO/N=C(\C#N)C(=O)N1CCC(c2nc(C3=NOC(c4c(F)cccc4F)C3)cs2)CC1 (stereo not shown) [Compound I-28] | – | B (75%≤B<90%) | A (90%≤A≤100%) | –
CCO/N=C/C(=O)N1CCC(c2nc(C3=NOC(c4c(F)cccc4F)C3)cs2)CC1 (stereo not shown) [Compound I-29] | A (90%≤A≤100%) | A (90%≤A≤100%) | A (90%≤A≤100%) | –
CCO/C(C)=C/C(=O)N1CCC(c2nc(C3=NOC(c4c(F)cccc4F)C3)cs2)CC1 (stereo not shown) [Compound I-30] | B (75%≤B<90%) | B (75%≤B<90%) | A (90%≤A≤100%) | –
COC(CC(=O)N1CCC(c2nc(C3=NOC(c4c(F)cccc4F)C3)cs2)CC1)OC (stereo not shown) [II-1] | A (90%≤A≤100%) | A (90%≤A≤100%) | A (90%≤A≤100%) | –
CCOC(CC(=O)N1CCC(c2nc(C3=NOC(c4c(F)cccc4F)C3)cs2)CC1)OCC (stereo not shown) [II-2] | A (90%≤A≤100%) | A (90%≤A≤100%) | A (90%≤A≤100%) | Control effect [1]: B (75%≤B<90%); Control effect [2]: A (90%≤A≤100%); Control effect [3]: A (90%≤A≤100%)
CCCOC(CC(=O)N1CCC(c2nc(C3=NOC(c4c(F)cccc4F)C3)cs2)CC1)OCC (stereo not shown) [II-4] | A (90%≤A≤100%) | A (90%≤A≤100%) | A (90%≤A≤100%) | efficacy compared with dimethomorph and cyazofamid (0.078 mg/L): superior to that of dimethomorph and cyazofamid; efficacy compared with oxathiapiprolin (0.078 mg/L): equivalent to that of oxathiapiprolin at the same concentration; Control effect (0.078 mg/L, re-screening): ≥ 90%; Control effect [1]: A (90%≤A≤100%); Control effect [2]: A (90%≤A≤100%); Control effect [3]: A (90%≤A≤100%); bactericidal activity (re-screening): excellent bactericidal activity
CCOC(CC(=O)N1CCC(c2nc(C3=NOC(c4c(F)cccc4F)C3)cs2)CC1)OCc1ccccc1 (stereo not shown) [II-5] | – | D (45%≤D<60%) | A (90%≤A≤100%) | –
COC(OC)C(C)C(=O)N1CCC(c2nc(C3=NOC(c4c(F)cccc4F)C3)cs2)CC1 (stereo not shown) [II-6] | – | D (45%≤D<60%) | C (60%≤C<75%) | –
CCC(C(=O)N1CCC(c2nc(C3=NOC(c4c(F)cccc4F)C3)cs2)CC1)C(OC)OC (stereo not shown) [II-7] | – | D (45%≤D<60%) | B (75%≤B<90%) | –
CCCC(C(=O)N1CCC(c2nc(C3=NOC(c4c(F)cccc4F)C3)cs2)CC1)C(OC)OC (stereo not shown) [II-8] | D (45%≤D<60%) | C (60%≤C<75%) | A (90%≤A≤100%) | –
CCCCC(C(=O)N1CCC(c2nc(C3=NOC(c4c(F)cccc4F)C3)cs2)CC1)C(OC)OC (stereo not shown) [II-9] | D (45%≤D<60%) | B (75%≤B<90%) | A (90%≤A≤100%) | –
COC(OC)C(C(=O)N1CCC(c2nc(C3=NOC(c4c(F)cccc4F)C3)cs2)CC1)c1ccccc1 (stereo not shown) [II-10] | – | – | D (45%≤D<60%) | –
CC1(CC(=O)N2CCC(c3nc(C4=NOC(c5c(F)cccc5F)C4)cs3)CC2)OCCO1 (stereo not shown) [II-11] | D (45%≤D<60%) | C (60%≤C<75%) | A (90%≤A≤100%) | –
CC1COC(C)(CC(=O)N2CCC(c3nc(C4=NOC(c5c(F)cccc5F)C4)cs3)CC2)O1 (stereo not shown) [II-12] | – | D (45%≤D<60%) | A (90%≤A≤100%) | –
CCOC(CC(=O)N1CCC(c2nc(C3=NOC(c4c(F)cccc4F)C3)cs2)CC1)OCC(F)(F)F (stereo not shown) [II-19] | A (90%≤A≤100%) | A (90%≤A≤100%) | A (90%≤A≤100%) | Control effect (0.005 mg/L, re-screening, Table 2): B (75%≤B<90%); Control effect (0.02 mg/L, re-screening, Table 2): A (90%≤A≤100%); efficacy compared with dimethomorph and cyazofamid (0.078 mg/L): superior to that of dimethomorph and cyazofamid; efficacy compared with oxathiapiprolin (0.078 mg/L): equivalent to that of oxathiapiprolin at the same concentration; Control effect (0.078 mg/L, re-screening): ≥ 90%; Control effect [1]: A (90%≤A≤100%); Control effect [2]: A (90%≤A≤100%); Control effect (0.625 mg/L, Table 3): A (90% ≤ A ≤ 100%); Control effect [3]: A (90%≤A≤100%); Control effect (2.5 mg/L, Table 3): A (90% ≤ A ≤ 100%); Control effect (10 mg/L, Table 3): A (90% ≤ A ≤ 100%); bactericidal activity (re-screening): excellent bactericidal activity
